Reference: ChEMBL document CHEMBL1145591, “Synthesis of new UV-B light absorbents: (Acetylphenyl)glycosides with antioxidant activities” (Bioorg Med Chem Lett, 2008)

Assay: Antioxidant activity after 1 hr by cytochrome-c reduction assay
Type: functional
Set-up: scale not given: the % may be the effect or the level left

CC(=O)c1cccc(O[C@@H]2O[C@H](CO)[C@@H](O)[C@H](O)[C@H]2O)c1
Activity: 51.7%

CC(=O)c1cccc(O)c1
Activity: 0%

CC(=O)c1cccc(O[C@@H]2O[C@H](CO)[C@@H](O)[C@H](O)[C@@H]2O)c1
Activity: 71.5%

CC(=O)c1cccc(O[C@H]2O[C@H](CO)[C@@H](O)[C@H](O)[C@@H]2O)c1
Activity: 66.9%
